# Reference: PMC5429621 (Scientific Reports, 2017)
# Key:
# hP2X1R = molecular target: T1, hP2X1R (Homo sapiens, UniProt P51575); test: two-electrode voltage clamp, Xenopus oocytes; format: cell-based
# T1 construct: expressed in transfected cells; host or cells: Xenopus laevis oocytes (cRNA injected)
# T1 sequence (P51575 1-399): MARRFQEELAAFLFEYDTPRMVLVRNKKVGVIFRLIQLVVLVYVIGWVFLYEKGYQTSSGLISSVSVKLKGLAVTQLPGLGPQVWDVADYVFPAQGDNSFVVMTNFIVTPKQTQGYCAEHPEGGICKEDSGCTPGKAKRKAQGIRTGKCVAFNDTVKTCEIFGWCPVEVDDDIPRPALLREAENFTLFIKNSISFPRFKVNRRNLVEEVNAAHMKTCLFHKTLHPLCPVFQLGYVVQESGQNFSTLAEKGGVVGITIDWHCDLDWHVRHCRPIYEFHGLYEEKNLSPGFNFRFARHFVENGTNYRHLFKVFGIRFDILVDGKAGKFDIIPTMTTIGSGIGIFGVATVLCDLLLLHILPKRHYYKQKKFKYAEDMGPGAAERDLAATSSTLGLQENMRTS
# Source text: (§1) The hP2X1R was a gift from Dr Lin-Hua Jiang (University of Leeds, UK) and the hP2X1R cDNA has been described previously. Chimeras were generated by megaprimer-mediated domain swapping. In addition to chimeras, point mutations, deletions and insertions were made using the QuikChange (Stratagene) or Q5 (New England Bioscience) mutagenesis kits. The production of the correct mutations and absence of coding errors was verified by DNA sequencing (Automated ABI Sequencing Service, University of Leicester, UK).
# (§2) P2XR constructs were transcribed to produce sense-strand cRNA (mMessage mMachine, Ambion, Austin, TX). Manually defoliculated stage V Xenopus laevis oocytes were injected with 50 nl (50 ng) of cRNA using an Inject + Matic microinjector (J.A. Gaby, InjectMatic, Geneva, Switzerland) and stored at 16 °C in ND96 buffer (in mM, NaCl 96, KCl 2, CaCl2 1.8, MgCl2 1, sodium pyruvate 5, HEPES 5 (pH 7.6) supplemented with 50 µg/ml gentamycin and 50 µg/ml tetracycline). For electrophysiological recordings (3–7 days post-injection) oocytes were bathed in divalent free ND96 buffer (in mM, NaCl 96, KCl 2, sodium pyruvate 5, HEPES 5 and 0.1 flufenamic acid, pH 7.6).
# Two-electrode voltage clamp recordings were carried out using a GeneClamp 500B amplifier with a Digidata 1322 A analog to digital convertor and pCLAMP 8.2 acquisition software (Molecular Devices, Menolo Park, CA) at a holding potential of −60 mV. ATP (sodium salt, Sigma) was applied via a U-tube perfusion system for 3 s at 3–5 minute intervals to allow reproducible responses to be recorded. For determination of antagonist sensitivity AZ10606120 (Tocris) was bath perfused as well as co-applied with ATP through the U-tube. […]
# Concentration response curves were normalized to the maximal response and fitted with the Hill equation (variable slope) with GraphPad Prism 6 (Graphpad software, San Diego, CA). […] Any significant differences were calculated by one-way analysis of variance, followed by Bonferroni’s test (using GraphPad Prism 6). […]
# [1] = molecular target: T2, hP2X7-2Nβ/P2X1 chimera 81–94 (Homo sapiens, UniProt Q99572, F88W/H85P/I21V/K81P/K82G/M24R/N16P/N25R/Q22R/R20V/S23N/S86Q/T19I/T90V/T94V/V84G/Y26L); test: two-electrode voltage clamp, Xenopus oocytes; format: cell-based; conditions: 81–94 chimera
# T2 construct: expressed in transfected cells; host or cells: Xenopus laevis oocytes (cRNA injected)
# T2 sequence (Q99572 1-595 N16P/T19I/R20V/I21V/Q22R/S23N/M24R/N25R/Y26L/K81P/K82G/V84G/H85P/S86Q/F88W/T90V/T94V): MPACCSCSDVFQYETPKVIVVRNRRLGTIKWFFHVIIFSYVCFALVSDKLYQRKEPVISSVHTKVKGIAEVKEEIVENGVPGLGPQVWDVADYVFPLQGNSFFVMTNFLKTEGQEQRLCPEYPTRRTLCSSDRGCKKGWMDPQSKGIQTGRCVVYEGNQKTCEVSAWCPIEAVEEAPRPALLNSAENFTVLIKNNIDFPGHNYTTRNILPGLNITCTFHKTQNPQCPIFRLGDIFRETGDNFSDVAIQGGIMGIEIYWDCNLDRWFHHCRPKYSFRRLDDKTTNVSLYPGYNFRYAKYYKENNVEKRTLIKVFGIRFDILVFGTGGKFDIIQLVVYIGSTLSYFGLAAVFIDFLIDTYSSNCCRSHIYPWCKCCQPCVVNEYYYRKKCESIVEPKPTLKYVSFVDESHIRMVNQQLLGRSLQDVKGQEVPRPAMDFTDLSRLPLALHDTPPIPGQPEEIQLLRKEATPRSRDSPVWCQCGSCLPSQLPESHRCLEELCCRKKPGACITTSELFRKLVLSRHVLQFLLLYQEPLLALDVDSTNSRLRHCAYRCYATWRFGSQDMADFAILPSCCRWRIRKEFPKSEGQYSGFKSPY
# Source text: as §1, §2
# ATP (sodium salt, Sigma) was applied via a U-tube perfusion system for 3 s at 3–5 minute intervals to allow reproducible responses to be recorded. […] To standardize for any change in ATP sensitivity at mutant receptors antagonists were co-applied with an EC90 concentration of ATP.
# Concentration response curves were normalized to the maximal response and fitted with the Hill equation (variable slope) with GraphPad Prism 6 (Graphpad software, San Diego, CA). […] Individual concentration response curves were generated for individual experiments and statistical analysis was carried out on the data generated. In the figures the inhibition curves are fitted to the mean normalized data. Any significant differences were calculated by one-way analysis of variance, followed by Bonferroni’s test (using GraphPad Prism 6). Data are shown as mean ± SEM.
structure (smiles),measurement,setting,value
"Cl.Cl.O=C(CC12CC3CC(CC(C3)C1)C2)Nc1cccc2nc(NCCNCCO)ccc12 [AZ10606120, N-[2-[[2-[(2-Hydroxyethyl)amino]ethyl]amino]-5-quinolinyl]-2-tricyclo[3.3.1.13,7]dec-1-ylacetamide dihydrochloride]",AZ10606120 pIC50,"hP2X1R; P2X1, EC90 ATP",insensitive
same,effect of AZ10606120 at P2X1R,hP2X1R; at 10 μM,ineffective
same,"peak current to ATP, % of the control response",[1]; in the presence of 3 µM AZ10606120,53.6 ± 2.6%
Nc1ncnc2c1ncn2[C@@H]1O[C@H](COP(=O)(O)OP(=O)(O)OP(=O)(O)O)[C@@H](O)[C@H]1O [ATP],Peak amplitude,"hP2X1R; P2X1, maximal ATP",7.90 ± 1.08 μA
same,Peak amplitude,[1]; maximal ATP,0.76 ± 0.13 μA
